Values of other authors as cited in patent publication US20230406931A1, “Adjuvant Durvalumab in Combination with Chemotherapy for Treatment of Cancer” (ASTRAZENECA AB, priority 2020, published 2023).

How the values were obtained:
[1] = durvalumab versus placebo following definitive concurrent chemoradiation, PACIFIC study; cited from earlier work
PD-L1 = PD-L1 (Homo sapiens, UniProt Q9NZQ7); conditions: in vitro; cited from earlier work
xenograft tumor = conditions: xenograft model, via a T-cell dependent mechanism; cited from earlier work

PD-L1, sequence (Q9NZQ7 19-290): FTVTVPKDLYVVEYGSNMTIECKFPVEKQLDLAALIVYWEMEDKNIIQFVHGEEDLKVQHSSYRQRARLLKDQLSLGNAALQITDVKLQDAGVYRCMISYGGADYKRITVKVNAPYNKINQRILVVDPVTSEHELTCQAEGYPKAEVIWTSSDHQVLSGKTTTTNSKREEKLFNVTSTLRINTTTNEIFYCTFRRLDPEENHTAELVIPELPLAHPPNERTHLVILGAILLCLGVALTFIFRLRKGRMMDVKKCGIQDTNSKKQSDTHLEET

durvalumab: antibody that selectively binds PD-L1 and blocks the binding of PD-L1 to the PD-1 and CD80 receptors
overall survival (OS) [1]: improved | progression-free survival (PFS) [1]: improved | relief of PD-L1-mediated suppression of human T-cell activation (PD-L1): relieve PD-L1-mediated suppression of human T-cell activation | tumor growth (xenograft tumor): inhibits tumor growth
